Measurements taken from patent US12234211B2, “Cycloolefin substituted heteroaromatic compounds and their use” (HUTCHISON MEDIPHARMA LIMITED, priority 2017, dated 2025).
pIC50: −log10 of the molar value. Converted amounts (≈) assume the structure as drawn. Where two headings read alike, the source gives them in different places.

What was measured:
IDH1-R132H = molecular target: T1, IDH1-R132H (Homo sapiens, UniProt O75874, R132H); experiment: Fluorescent determination of IDH1-R132H cell activity (2-HG in U87MGR132H cells); assay type: cell-based; details: 2-HG inhibition in U87MGR132H cells transfected with IDH1-R132H mutant plasmid
T1 construct: expressed in transfected cells; host or cells: U87MG cells (U87MGR132H)
T1 sequence (O75874 whole entry R132H): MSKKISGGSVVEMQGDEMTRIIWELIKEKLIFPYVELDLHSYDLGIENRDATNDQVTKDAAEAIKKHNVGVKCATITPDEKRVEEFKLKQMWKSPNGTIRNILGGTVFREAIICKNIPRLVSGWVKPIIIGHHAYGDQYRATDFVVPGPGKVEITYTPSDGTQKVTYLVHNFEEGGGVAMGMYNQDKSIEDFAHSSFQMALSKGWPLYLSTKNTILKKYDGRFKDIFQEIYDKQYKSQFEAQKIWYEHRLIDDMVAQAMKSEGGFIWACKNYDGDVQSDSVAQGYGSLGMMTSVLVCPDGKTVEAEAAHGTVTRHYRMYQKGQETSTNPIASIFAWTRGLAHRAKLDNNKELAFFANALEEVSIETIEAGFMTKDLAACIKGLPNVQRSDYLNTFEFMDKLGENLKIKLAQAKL

IDH2-R140Q = molecular target: T2, IDH2-R140Q (Homo sapiens, UniProt P48735, R140Q); experiment: Fluorescent determination of IDH2-R140Q cell activity (2-HG in U87MGR140Q cells); assay type: cell-based; details: 72 hours incubation, read-out: IC50 (2-HG inhibition)
T2 construct: expressed in transfected cells
T2 sequence (P48735 40-452 R140Q): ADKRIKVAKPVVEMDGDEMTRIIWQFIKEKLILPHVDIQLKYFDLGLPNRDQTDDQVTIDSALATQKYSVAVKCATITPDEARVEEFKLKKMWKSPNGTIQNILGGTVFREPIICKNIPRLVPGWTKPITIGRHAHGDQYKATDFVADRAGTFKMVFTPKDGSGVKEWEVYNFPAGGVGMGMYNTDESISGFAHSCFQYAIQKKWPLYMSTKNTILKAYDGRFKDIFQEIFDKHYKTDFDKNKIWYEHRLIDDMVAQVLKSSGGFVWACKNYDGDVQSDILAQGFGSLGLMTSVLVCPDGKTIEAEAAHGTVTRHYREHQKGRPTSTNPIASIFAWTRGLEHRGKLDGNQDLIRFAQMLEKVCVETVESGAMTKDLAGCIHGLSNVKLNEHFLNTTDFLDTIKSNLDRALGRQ

[1] = Determination of solubility in sodium phosphate buffers; assay type: physicochemical; details: for solubility at 1 h: aqueous buffer, thermodynamic from solid
Protocol: • Sample standard solution: About 3-5 mg test compound was accurately weighed and added into a 5 mL sample tube, 5 mL DMSO was added. Shaking and sonicating for 1 hour. • pH 2.1 sample solution: About 1 mg test compound was accurately weighed and added into a 1 mL sample tube, 1 mL pH 2.1 sodium phosphate buffer was added. Shaking. Adding test compound to the solution, if the solution is visually clear, till there is obvious insoluble in the solution. Sonicating for 1 hour. • pH 7.4 sample solution: About 1 mg test compound was accurately weighed and added into a 1 mL sample tube, 1 mL pH 7.4 sodium phosphate buffer was added. Shaking. Adding test compound to the solution, if the solution is visually clear, till there is obvious insoluble in the solution. Sonicating for 1 hour. 2. Determination • 1 mL sample standard solution was accurately pipetted into a HPLC tube. The peak area was determined by HPLC. • 0.5 mL pH 2.1 sample solution was filtered by syringe filter and was accurately pipetted into a HPLC tube, and 0.5 mL pH 2.1 sodium phosphate buffer was accurately added. Shaking. The peak area was determined by HPLC. • 0.5 mL pH 7.4 sample solution was filtered by syringe filter and was accurately pipetted into a HPLC tube, and 0.5 mL pH 7.4 sodium phosphate buffer was accurately added. Shaking. The peak area was determined by HPLC. • HPLC condition: • Instrument: Agilent 1200 • Column: Agilent SB-C18 5 u 4.6*150 mm • Mobile phase: • Phase A: Water (containing 0.1% formic acid) • Phase B: MeOH (containing 0.1% formic acid)

[2] = Metabolic stability test in liver microsomes (rat); assay type: in vitro ADME; details: percentage of remaining compound after incubation for 30 minutes vs 0 minute; 1 μM compound; 0.5 mg/mL liver microsomes; 37° C.
Protocol: (§1) Male CD1 mouse liver microsomes was supplied by Research Institute for Liver Diseases (Shanghai) Co., Ltd. Male SD rat liver microsomes was supplied by BioreclamationIVT in US.
(§2) Phenacetin, glucose-6-phosphate (G-6-P), glucose-6-phosphate dehydrogenase (G-6-PD), and nicotinamide adenine dinucleotide phosphate (NADP) were supplied by Sigma-Aldrich (Missouri, USA).
(§3) 10 mM stock solution of test compound: Certain amount of test compound was weighed and dissolved in certain volume of dimethylsulfoxide (DMSO) to get the stock solution of test compound at 10 mM.
(§4) Reaction termination solution: Certain amount of phenacetin as internal standard was weighed and dissolved in acetonitrile to get the reaction termination solution at 1000 ng/mL, and stored at room temperature for use.
(§5) The stock solution of test compound was diluted to the designated concentration with organic solution (usually the mixtures of acetonitrile, methanol and water with different portions depending on the compound solution) to make the final concentration to be 1 μM and the contents of organic solvents no more than 1% (For DMSO, the controlled margin was 0.1%) in the final incubation system. 100 mM NADP, 500 mM G-6-P and 100 U/mL G-6-PDH were mixed and diluted with ultrapure water to provide the NADPH regenerating system containing 1 mM NADP, 5 mM G-6-P and 1 U/mL G-6-PD, which was pre-incubated at 37° C. water-bath for 10 min and then cooled on ice until being added into the reaction system. 20 mg/mL liver microsomes was mixed with 200 mM PBS and diluted with ultrapure water to make the concentrations of liver microsomes and PBS to be 0.5 mg/mL and 50 mM in the final incubation system, respectively. After the diluted liver microsomes was mixed with the NADPH regenerating solution, certain volumes of 100 mM EDTA and 300 mM MgCl2 (concentration of EDTA and MgCl2 in the final incubation system is 1 mM and 3 mM, respectively) were added, and the incubation system was put into 37° C. water bath. The incubation was commenced by adding the stock solution of test compound and maintained for 30 min. The incubation was terminated by adding the reaction termination solution. The 0 min sample was prepared by adding the reaction termination solution to the incubation system immediately prior to putting the system into the water bath with the addition of the stock solution of test compound. The terminated incubation mixtures were vortexed and centrifuged at 4400 rpm for 10 min, and the supernatant was collected for LC-MS/MS analysis.
(§6) The concentration of test compound was determined using LC-MS/MS method. Using the peak area ratio of the compound and the internal standard as an index, the percentage of remaining compound after incubation for 30 minutes as compared with the 0 minute sample was calculated, and the metabolic stability of the compound was evaluated.

[3] = Metabolic stability test in liver microsomes (mouse); assay type: in vitro ADME; details: percentage of remaining compound after incubation for 30 minutes vs 0 minute; 1 μM compound; 0.5 mg/mL liver microsomes; 37° C.
Protocol: as §1, §2, §3, §4, §5, §6

mutant IDH1 = details: patients with AML or MDS having IDH1 mutations; cited from earlier work
[4] = pH 2.1 sodium phosphate buffer, read-out: Solubility pH 2.1
[5] = pH 7.4 sodium phosphate buffer, read-out: Solubility pH 7.4

Row | pIC50 (IDH1-R132H) | pIC50 (IDH2-R140Q) | solubility at 1 h [1, 4] [µg/mL] | solubility at 1 h [1, 5] [µg/mL] | Rat liver microsome stability [2] [%] | Mouse liver microsome stability [3] [%] | Solubility pH 2.1 ([1]; pH 2.1 sodium phosphate buffer) [mg/mL] | Solubility pH 7.4 ([1]; pH 7.4 sodium phosphate buffer) [mg/mL] | Structure (SMILES) | patients with decreased levels of α-hydroxyglutaric acid (2HG) (mutant IDH1) [%]
1 | 5.52 | 7.30 | 64 (≈ 145 µM) | 55 (≈ 124 µM) | – | – | – | – | CC(C)(C)ONc1nc(Nc2ccnc(C(F)(F)F)c2)nc(C2=C(F)C(O)CCC2)n1 (stereo not shown) [Compound 71] | –
2 | 7.33 | 7.28 | 77 (≈ 177 µM) | 21 (≈ 48.2 µM) | 98.5 | 89.5 | – | – | C[C@@H](Nc1nc(N[C@H](C)C(F)(F)F)nc(C2=C(F)C(O)C(F)CC2)n1)C(F)(F)F (single isomer, unassigned) [Compound 97] | –
3 | 5.49 | 6.15 | 190 (≈ 429 µM) | 60 (≈ 135 µM) | – | – | – | – | C[C@@H](Nc1nc(N[C@H](C)C(F)(F)F)nc(C2=C(F)C(O)C3(CC2)CC3)n1)C(F)(F)F (mixture of isomers) [Compound 219] | –
4 | – | 6.63 | 570 (≈ 1360 µM) | 62 (≈ 148 µM) | – | – | – | – | OC1CCCCC(c2nc(NC3CC(F)(F)C3)nc(NC3CC(F)(F)C3)n2)=C1F (stereo not shown) [Compound 20] | –
5 | – | 6.24 | > 1000 | 85 (≈ 217 µM) | – | – | – | – | CC(C)Nc1nc(N[C@H](C)C(F)(F)F)nc(C2=C(F)C(O)CC(C)(C)C2)n1 (mixture of isomers) [Compound 9] | –
6 | – | – | – | – | – | – | – | – | N#Cc1ccnc(N2C(=O)CC[C@H]2C(=O)N(c2cncc(F)c2)[C@H](C(=O)NC2CC(F)(F)C2)c2ccccc2Cl)c1 [AG-120] | 98
7 | – | 5.78 | 448 (≈ 1350 µM) | 19 (≈ 57.3 µM) | – | – | – | – | CC(C)Nc1nc(N[C@H](C)C(F)(F)F)nc(C2=CC(O)CC2)n1 (mixture of isomers) [Compound 125] | –
8 | – | – | 789 (≈ 3020 µM) | 818 (≈ 3130 µM) | – | – | – | – | Nc1nc(N)nc(C2=C(F)C(O)C(F)(F)CC2)n1 (stereo not shown) [Compound 284, 3-(4,6-Diamino-1,3,5-triazin-2-yl)-2,6,6-trifluorocyclohex-2-en-1-ol] | –
9 | – | 6.36 | 141 (≈ 314 µM) | < 5 | – | – | – | – | C[C@@H](Nc1nc(Nc2ccc3cccnc3c2)nc(C2=C(F)C(O)CCC2)n1)C(F)(F)F (stereo partly shown) [Compound 68] | –
10 | < 5.00 | 5.93 | 55 (≈ 127 µM) | < 5 | – | – | – | – | C[C@@H](Nc1nc(C2=C(F)C(O)C(F)(F)CC2)nc(N2CC(F)(F)C2)n1)C(F)(F)F (stereo partly shown) [Compound 243] | –
11 | – | – | – | – | 92.9 | 93.1 | 0.146 | 0.037 | [2H]C1([2H])CCC(c2nc(N[C@H](C)C(F)(F)F)nc(N[C@H](C)C(F)(F)F)n2)=C(F)C1O (stereo partly drawn) [Compound 82, (*)3-(4,6-Bis(((R)-1,1,1-trifluoropropan-2-yl)amino)-1,3,5-triazin-2-yl)-2-fluorocyclohex-2-en-6,6-D2-1-ol] | –
12 | – | 6.06 | > 1000 | 716 (≈ 1830 µM) | – | – | – | – | C[C@@H](Nc1nc(N[C@H]2CCOC2)nc(C2=C(F)C(O)CCC2)n1)C(F)(F)F (mixture of isomers) [Compound 3] | –
